In patent US7816389B2, “Organic compounds” (Nabriva Therapeutics Forschungs GmbH, priority 2006, dated 2010):
≈ marks a conversion by molar mass, not a printed value.

What was measured:
Format in all cases: cell-based
[1] = test system: Staphylococcus aureus (MSSA) ATCC29213 B7; assay: MIC determination according to CLSI; settings: ATCC29213, strain B7
Source text: (§1) For example, the compounds of the present invention show antimicrobial, e.g. antibacterial, activity against gram positive bacteria, such as coagulase-positive and coagulase-negative Staphylococci, e.g. Staphylococcus aureus, Styphylococcus epidermis, Staphylococcus haemolyticus, Streptococci, e.g. Streptococcus pyogenes, Streptococcus pneumoniae, Streptococcus agalacticae, Enterococci, e.g. Enterococcus faecium and Moraxellaceae, e.g. Moraxella catarrhalis, Pasteurellaceae, e.g. Haemophilus influenzae, as well as against Mycoplasmactaceae, Chlamydiaceae, e.g. Chlamydia trachomatis, Chlamydia pneumoniae and obligatory anaerobes, e.g. Bacteroides fragilis, Clostridium difficile; in vitro in the Agar Dilution Test or Microdilution Test according to the Climical and Laboratory Standards Institute (CLSI, former National Commitee for Clinical Laboratory Standards (NCCLS) 2006, Document M7-A7 Vol. 26, No. 2: “Methods for dilution Antimicrobial Susceptibility Tests for Bacteria that Grow Aerobically—Seventh Edition, Approved Standard”; and in the in vitro determination of the antibacterial activity against anaerobic bacteria according to National Committee for Clinical Laboratory Standards (NCCLS) VOL. 24, No. 2, M11-A5, Methods for Antimicrobal Susceptibility Testing of Anaerobic Bacteria; Approved Standard; Sixth Edition (2004) and in vivo in the septicaemic mouse model against Staphylococcus aureus.
(§2) The antibacterial activity expressed as minimal inhibitory concentration (MIC) was determined according to the approved standard reference recommendations of CLSI (former NCCLS).

[2] = test system: Streptococcus pneumoniae ATCC49619 B11; assay: MIC determination according to CLSI; settings: ATCC49619, strain B11
Source text: as §1, §2

[3] = test system: Moraxella catarrhalis ATCC43618 B407; assay: MIC determination according to CLSI; settings: ATCC43618, strain B407
Source text: as §1, §2

[4] = test system: Enterococcus faecalis ATCC51299 B5; assay: MIC determination according to CLSI; settings: ATCC51299, strain B5
Source text: as §1, §2

[5] = test system: Staphylococcus aureus (MSSA) ATCC10390 B6; assay: MIC determination according to CLSI; settings: ATCC10390, strain B6
Source text: as §1, §2

[6] = test system: Escherichia coli ATCC25922 B1; assay: MIC determination according to CLSI; settings: ATCC25922, strain B1
Source text: as §1, §2

[7] = test system: Enterococcus faecalis ATCC29212 B4; assay: MIC determination according to CLSI; settings: ATCC29212, strain B4
Source text: as §1, §2

[8] = test system: Staphylococcus aureus, Enterococcus faecalis, Streptococcus pneumoniae, Moraxelia catarrhalis and Escherichia coli; assay: MIC determination according to CLSI, panel of pathogens
Method: as §2

| MIC [1] [µg/mL] | MIC [2] [µg/mL] | MIC [3] [µg/mL] | MIC [4] [µg/mL] | MIC [5] [µg/mL] | MIC [6] [µg/mL] | MIC [7] [µg/mL] | factor by which MICs are lower than the MICs of Example 2 ([8]; against at least one of the strains shown in Table 1) | SMILES | antibacterial activity (in vitro) ([8]; against at least one of the clinical relevant bacterial pathogens) |
| --- | --- | --- | --- | --- | --- | --- | --- | --- | --- |
| ≤ 0.0125 | 0.01 (≈ 0.02 µM) | ≤ 0.0125 | 6.4 (≈ 12.8 µM) | ≤ 0.0125 | 12.8 (≈ 25.6 µM) | 6.4 (≈ 12.8 µM) | ≥ 2 | C=C[C@]1(C)C[C@@H](OC(=O)CSc2cccc(CO)c2)[C@]2(C)C(C)CCC3(CCC(=O)C32)[C@@H](C)[C@@H]1O (stereo partly shown) [Example 1, 14-O-[(3-Hydroxymethyl-phenylsulfanyl)-acetyl]-mutilin] | very good activity |
| 0.025 (≈ 0.0516 µM) | 0.16 (≈ 0.33 µM) | ≤ 0.0125 | > 25.6 | 0.025 (≈ 0.0516 µM) | > 25.6 | > 25.6 |  | C=C[C@]1(C)C[C@@H](OC(=O)CSc2ccc(C)cc2)[C@]2(C)C(C)CCC3(CCC(=O)C32)[C@@H](C)[C@@H]1O (stereo partly shown) [Example 2, 14-O-[(4-Methyl-phenylsulfanyl)-acetyl]-mutilin, reference compound] |  |
